Measured values reported in patent publication US20240269337A1, “METHOD AND SYSTEM FOR COATING FILTER MEDIA” (MOLECULAR PLASMA GROUP SA, priority 2021, published 2024).
Like-named read-outs stand apart in the source and are kept apart here.

System: Bacteriophage MS2
Format: cell-based
Settings: for LOG Reduction: plasma coating of precursor on Tyvek substrate, (LOD) = limit of detection

C=CC(=O)NCCC[N+](C)(C)C.[Cl-] [APTAC, (3-Acrylamidopropyl)trimethylammonium chloride]
LOG Reduction: 2.1 log

CCCCCCCCCCCCCCCCCC[N+](C)(C)CCC[Si](OC)(OC)OC.[Cl-] [SiQAM, Dimethyloctadecyl[3-(trimethoxysilyl)propyl] ammonium chloride]
LOG Reduction: 1.56 log

Benzalkonium chloride [reference compound]
LOG Reduction: >3.8 (LOD) log

Citric Acid
Avg. MS2 (log red) (Filter media sample, 6 passes): 2.15 log red
MS2 neutralized (%) (Filter media sample, 6 passes): 99.29%
Avg. MS2 (log red) (Filter media sample, 10 passes): 2.72 log red
MS2 neutralized (%) (Filter media sample, 10 passes): 99.81%
Avg. MS2 (log red) (Filter media sample, 20 passes): 2.46 log red
MS2 neutralized (%) (Filter media sample, 20 passes): 99.65%
Avg. MS2 (log red) (Outer wave sample, 6 passes): 2.13 log red
MS2 neutralized (%) (Outer wave sample, 6 passes): 99.26%
Avg. MS2 (log red) (Outer wave sample, 10 passes): 1.96 log red
MS2 neutralized (%) (Outer wave sample, 10 passes): 98.90%
Avg. MS2 (log red) (Outer wave sample, 20 passes): 2.71 log red
MS2 neutralized (%) (Outer wave sample, 20 passes): 99.81%
LOG Reduction: >5.0 (LOD) log
